Source: ChEMBL document CHEMBL5247656, “Discovery of a Potent, Cooperative, and Selective SOS1 PROTAC ZZ151 with In Vivo Antitumor Efficacy in KRAS-Mutant Cancers” (J Med Chem, 2023)
Calls of active or inactive are those of the source. The rule behind the calls is not given here.

Assays:
[1] = biological target: T1, von Hippel-Lindau disease tumor suppressor/Son of sevenless homolog 1 (Homo sapiens) (UniProt Q07889+P40337); test: In vivo PROTAC activity at VHL/SOS1 in human SW620 cells harboring KRAS G12V mutant xenografted BALB/c nude mouse assessed as decrease in phosphorylated ERK expression in tumor at 10 to 20 mg/kg, ip administered once daily for 2 weeks by immunohistochemistry analysis; format: functional, organism-based; conditions: SW-620, dose 10-20 mg/kg
T1 sequence (P40337 whole entry, looked up): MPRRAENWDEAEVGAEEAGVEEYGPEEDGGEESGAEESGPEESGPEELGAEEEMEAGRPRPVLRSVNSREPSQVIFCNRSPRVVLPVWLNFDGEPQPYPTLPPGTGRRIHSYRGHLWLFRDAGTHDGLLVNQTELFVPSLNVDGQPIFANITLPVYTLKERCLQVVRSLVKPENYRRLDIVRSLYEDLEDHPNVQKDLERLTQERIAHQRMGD
T1 sequence (Q07889 whole entry, looked up): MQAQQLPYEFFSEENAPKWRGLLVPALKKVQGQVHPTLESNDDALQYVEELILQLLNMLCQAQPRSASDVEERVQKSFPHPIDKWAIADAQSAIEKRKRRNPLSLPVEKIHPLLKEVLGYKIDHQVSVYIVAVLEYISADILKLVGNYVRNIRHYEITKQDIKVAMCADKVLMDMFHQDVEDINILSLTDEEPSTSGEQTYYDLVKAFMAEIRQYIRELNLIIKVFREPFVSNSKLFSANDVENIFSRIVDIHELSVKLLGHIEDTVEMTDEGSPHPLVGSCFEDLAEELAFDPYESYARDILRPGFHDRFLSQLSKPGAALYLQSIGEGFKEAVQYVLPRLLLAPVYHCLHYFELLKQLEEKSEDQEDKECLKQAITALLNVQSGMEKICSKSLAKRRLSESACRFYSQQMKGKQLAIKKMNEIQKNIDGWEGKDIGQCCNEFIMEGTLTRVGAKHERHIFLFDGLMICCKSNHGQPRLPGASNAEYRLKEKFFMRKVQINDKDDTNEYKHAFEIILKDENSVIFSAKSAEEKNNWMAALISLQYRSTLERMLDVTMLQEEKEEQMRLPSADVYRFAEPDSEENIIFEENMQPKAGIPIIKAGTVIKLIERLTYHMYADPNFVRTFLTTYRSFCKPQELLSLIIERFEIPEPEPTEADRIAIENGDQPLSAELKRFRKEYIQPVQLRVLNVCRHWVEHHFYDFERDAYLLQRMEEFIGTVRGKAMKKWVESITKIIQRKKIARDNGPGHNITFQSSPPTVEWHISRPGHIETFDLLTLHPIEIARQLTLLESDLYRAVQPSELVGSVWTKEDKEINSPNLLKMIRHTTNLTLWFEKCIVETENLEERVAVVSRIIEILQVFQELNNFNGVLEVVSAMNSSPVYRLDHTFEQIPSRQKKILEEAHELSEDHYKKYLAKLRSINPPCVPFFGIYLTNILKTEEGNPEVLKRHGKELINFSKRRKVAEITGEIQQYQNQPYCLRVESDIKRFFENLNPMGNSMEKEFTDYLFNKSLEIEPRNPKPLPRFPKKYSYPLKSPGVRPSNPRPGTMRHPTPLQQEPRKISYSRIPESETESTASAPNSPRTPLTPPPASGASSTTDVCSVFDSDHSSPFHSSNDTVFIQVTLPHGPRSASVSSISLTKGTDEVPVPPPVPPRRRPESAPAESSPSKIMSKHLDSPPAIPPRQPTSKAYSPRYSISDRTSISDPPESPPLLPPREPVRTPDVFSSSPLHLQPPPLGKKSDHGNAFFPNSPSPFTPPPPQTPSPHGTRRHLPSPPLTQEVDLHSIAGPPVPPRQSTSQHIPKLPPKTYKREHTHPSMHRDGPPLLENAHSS

MIA PaCa-2 = test: Antiproliferative activity against human MIA PaCa-2 cells harboring KRAS G12C mutant assessed as inhibition of cell proliferation incubated for 7 days by CellTiterGlo-3D proliferation assay; format: functional, cell-based; conditions: MIA PaCa-2, 168 h
ASPC1 = test: Downregulation of ZCCHC10 in human ASPC1 cells at 1 uM incubated for 6 hrs by quantitative proteomics analysis; format: functional, cell-based
SW-620 = test: Antitumor activity against human SW620 cells harboring KRAS G12V mutant xenografted in BALB/c nude mouse assessed as tumor growth inhibition at 20 mg/kg, ip administered once daily for 2 weeks relative to control; format: functional; conditions: SW-620, 336 h, read-out: TGI
[2] = Toxicity in BALB/c nude mouse xenografted with human ASPC1 cells harboring KRAS G12D mutant assessed as body weight loss at 10 to 20 mg/kg, ip administered once daily for 3 weeks; format: organism-based; conditions: in vivo, 504 h, dose 10-20 mg/kg
[3] = biological target: T1, von Hippel-Lindau disease tumor suppressor/Son of sevenless homolog 1 (Homo sapiens); test: PROTAC activity at VHL/SOS1 in human Calu-1 cells harboring KRAS G12C mutant assessed as induction of SOS1 degradation by measuring maximal efficacy at 1 to 2000 nM incubated for 24 hrs by Immunoblot analysis relative to control; format: cell-based; conditions: dose 1-2000 nM
[4] = AUC in BALB/c mouse at 10 mg/kg, ip measured upto 24 hrs by LC-MS/MS analysis; format: ADME, organism-based; parameters: time < 24 hrs, dose 10 mg/kg, route ip; conditions: in vivo
PANC-1 = test: Antiproliferative activity against human PANC-1 cells harboring KRAS G12D mutant assessed as inhibition of cell proliferation incubated for 7 days by CellTiterGlo-3D proliferation assay; format: functional, cell-based; conditions: PANC-1, 168 h
[5] = biological target: T1, von Hippel-Lindau disease tumor suppressor/Son of sevenless homolog 1 (Homo sapiens); test: PROTAC activity at VHL/SOS1 in human ASPC1 cells harboring KRAS G12D mutant with shRNA lentivirus mediated VHL knockdown assessed as induction of SOS1 degradation at 1 uM incubated for 24 hrs by Immunoblot analysis; format: cell-based
[6] = biological target: T1, von Hippel-Lindau disease tumor suppressor/Son of sevenless homolog 1 (Homo sapiens); test: PROTAC activity at VHL/SOS1 in human SK-LU-1 cells harboring KRAS G12D mutant assessed as induction of SOS1 degradation by measuring maximal efficacy at 1 to 2000 nM incubated for 24 hrs by Immunoblot analysis relative to control; format: cell-based; conditions: dose 1-2000 nM
[7] = biological target: T1, von Hippel-Lindau disease tumor suppressor/Son of sevenless homolog 1 (Homo sapiens); test: PROTAC activity at VHL/SOS1 in human NCI-H358 cells harboring KRAS G12C mutant assessed as induction of SOS1 degradation at 1 uM incubated for 2 to 4 hrs by Immunoblot analysis; format: cell-based; conditions: time 2-4 hrs
[8] = biological target: T1, von Hippel-Lindau disease tumor suppressor/Son of sevenless homolog 1 (Homo sapiens); test: PROTAC activity at VHL/SOS1 in human SW620 cells harboring KRAS G12V mutant assessed as induction of SOS1 degradation by measuring maximal efficacy at 1 to 2000 nM incubated for 24 hrs by Immunoblot analysis relative to control; format: cell-based; conditions: dose 1-2000 nM
[9] = Toxicity in BALB/c nude mouse xenografted with human SW620 cells harboring KRAS G12V mutant assessed as body weight loss at 10 to 20 mg/kg, ip administered once daily for 2 weeks; format: organism-based, SW-620; conditions: in vivo, 336 h, dose 10-20 mg/kg
[10] = biological target: T1, von Hippel-Lindau disease tumor suppressor/Son of sevenless homolog 1 (Homo sapiens); test: (§1) PROTAC activity at VHL/SOS1 in human NCI-H358 cells harboring KRAS G12C mutant assessed as induction of SOS1 degradation at 1 uM preincubated with MG132 for 4 hrs followed by compound treatment and measured after 24 hrs by Immunoblot analysis; format: cell-based
[11] = biological target: T1, von Hippel-Lindau disease tumor suppressor/Son of sevenless homolog 1 (Homo sapiens); test: PROTAC activity at VHL/SOS1 in human ASPC1 cells harboring KRAS G12D mutant assessed as induction of SOS1 degradation at 1 uM incubated for 2 to 4 hrs by Immunoblot analysis; format: cell-based; conditions: time 2-4 hrs
[12] = biological target: T1, von Hippel-Lindau disease tumor suppressor/Son of sevenless homolog 1 (Homo sapiens); test: PROTAC activity at VHL/SOS1 in human HPAF-II cells harboring KRAS G12D mutant assessed as induction of SOS1 degradation by measuring maximal efficacy at 1 to 2000 nM incubated for 24 hrs by Immunoblot analysis relative to control; format: cell-based; conditions: dose 1-2000 nM
[13] = biological target: T1, von Hippel-Lindau disease tumor suppressor/Son of sevenless homolog 1 (Homo sapiens); test: PROTAC activity at VHL/SOS1 in human SK-CO-1 cells harboring G12V mutant assessed as induction of SOS1 degradation by measuring maximal efficacy at 1 to 2000 nM incubated for 24 hrs by Immunoblot analysis relative to control; format: cell-based; conditions: dose 1-2000 nM
[14] = biological target: T1, von Hippel-Lindau disease tumor suppressor/Son of sevenless homolog 1 (Homo sapiens); test: as §1, with “(R)-1-(4-(4-((1-(3-amino-5-(trifluoromethyl)phenyl)ethyl)amino)-7-methoxy-2-methylquinazolin-6-yl)piperidin-1-yl)ethanone” for “MG132”; format: cell-based
[15] = biological target: T1, von Hippel-Lindau disease tumor suppressor/Son of sevenless homolog 1 (Homo sapiens); test: In vivo PROTAC activity at VHL/SOS1 in human SW620 cells harboring KRAS G12V mutant xenografted BALB/c nude mouse assessed as induction of SOS1 degradation in tumor at 10 to 20 mg/kg, ip administered once daily for 2 weeks by immunohistochemistry analysis; format: functional, organism-based; conditions: SW-620, dose 10-20 mg/kg
[16] = biological target: T1, von Hippel-Lindau disease tumor suppressor/Son of sevenless homolog 1 (Homo sapiens); test: PROTAC activity at VHL/SOS1 in human NCI-H358 cells assessed as induction of SOS1 protein degradation by measuring maximal efficacy at 2 to 2000 nM incubated for 24 hrs by Immunoblot analysis relative to control; format: cell-based; conditions: dose 2-2000 nM
[17] = biological target: T1, von Hippel-Lindau disease tumor suppressor/Son of sevenless homolog 1 (Homo sapiens); test: PROTAC activity at VHL/SOS1 in human A549 cells harboring KRAS G12S mutant assessed as induction of SOS1 degradation by measuring maximal efficacy at 1 to 2000 nM incubated for 24 hrs by Immunoblot analysis relative to control; format: cell-based; conditions: dose 1-2000 nM
[18] = biological target: T1, von Hippel-Lindau disease tumor suppressor/Son of sevenless homolog 1 (Homo sapiens); test: PROTAC activity at VHL/SOS1 in human HCT-116 cells harboring KRAS G13D mutant assessed as induction of SOS1 degradation by measuring maximal efficacy at 1 to 2000 nM incubated for 24 hrs by Immunoblot analysis relative to control; format: cell-based; conditions: dose 1-2000 nM
[19] = biological target: T1, von Hippel-Lindau disease tumor suppressor/Son of sevenless homolog 1 (Homo sapiens); test: PROTAC activity at VHL/SOS1 in human SW620 cells harboring KRAS G12V mutant assessed as induction of SOS1 degradation at 1 uM incubated for 8 hrs by Immunoblot analysis; format: cell-based
[20] = biological target: von Hippel-Lindau disease tumor suppressor/Son of sevenless homolog 1 (Homo sapiens, UniProt P40337+Q07889, Q61H); test: PROTAC activity at VHL/SOS1 in human NCI-H460 cells harboring KRAS Q61H mutant assessed as induction of SOS1 degradation incubated for 24 hrs by Immunoblot analysis; format: cell-based
[21] = biological target: T1, von Hippel-Lindau disease tumor suppressor/Son of sevenless homolog 1 (Homo sapiens); test: PROTAC activity at VHL/SOS1 in human NCI-H358 cells assessed as induction of SOS1 protein degradation at 1.0 uM incubated for 24 hrs by Immunoblot analysis relative to control; format: cell-based

SMILES: COc1cc2nc(C)nc(N[C@H](C)c3cc(N)cc(C(F)(F)F)c3)c2cc1C1CCN(C(=O)CCCCCC(=O)N[C@H](C(=O)N2C[C@H](O)C[C@H]2C(=O)N[C@@H](C)c2ccc(-c3scnc3C)cc2)C(C)(C)C)CC1
- Activity [1]: Active
- IC50 (MIA PaCa-2): 10.1 nM
- Activity (ASPC1): Active
- inhibition in vivo at 20 mg/kg (SW-620): 65.4%
- Activity [2]: Non-Toxic
- Emax [3]: > 95%
- AUC at 24 h [4]: 14100 ng·h/mL
- IC50 (PANC-1): 13.8 nM
- Activity [5]: inactive
- Emax [6]: > 95%
- Activity [7]: Active
- Emax [8]: > 95%
- Activity [9]: Non-Toxic
- Activity [10]: inactive
- Activity [11]: Active
- Emax [12]: > 95%
- Emax [13]: > 95%
- Activity [14]: inactive
- Activity [15]: Active
- Emax [16]: 100%
- Emax [17]: > 95%
- Emax [18]: > 95%
- Activity [19]: Active
- EC50 [20]: 81.7 nM
- Activity [21]: 98.2%
